Legend:
[1] = system: barnyardgrass; experiment: Test B pre-/postemergence herbicide test; type: in vivo, Echinochloa crus-galli; details: for Barnyardgrass plant response rating: postemergence
In short: (§1)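 Pre: seeds sown, then sprayed. Post: 1–4-leaf plants (2–18 cm) sprayed at the same time. Paddy: flooded, treated at 2-leaf stage. Formulation: non-phytotoxic solvent with surfactant. Greenhouse 13–15 days; visual 0–100 score relative to controls.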

[2] = system: Surinam grass; experiment: Test B pre-/postemergence herbicide test; type: in vivo, Urochloa decumbens; details: for Surinam Grass plant response rating: scale 0 (no effect) to 100 (complete control)
In short: as §1

[3] = system: cocklebur; experiment: Test B pre-/postemergence herbicide test; type: in vivo, Xanthium strumarium; details: for Cocklebur plant response rating: postemergence
In short: as §1

[4] = system: corn; experiment: Test B pre-/postemergence herbicide test; type: in vivo, Zea mays; details: for Corn plant response rating: postemergence
In short: as §1

[5] = system: large crabgrass; experiment: Test B pre-/postemergence herbicide test; type: in vivo, Digitaria sanguinalis; details: for Crabgrass, Large plant response rating: postemergence
In short: as §1

[6] = system: giant foxtail; experiment: Test B pre-/postemergence herbicide test; type: in vivo, Setaria faberi; details: for Foxtail, Giant plant response rating: postemergence
In short: as §1

[7] = system: lambsquarters; experiment: Test B pre-/postemergence herbicide test; type: in vivo, Chenopodium album; details: for Lambsquarters plant response rating: scale 0 (no effect) to 100 (complete control)
In short: as §1

[8] = system: morningglory; experiment: Test B pre-/postemergence herbicide test; type: in vivo, Ipomoea coccinea; details: for Morningglory plant response rating: scale 0 (no effect) to 100 (complete control)
In short: as §1

[9] = system: pigweed; experiment: Test B pre-/postemergence herbicide test; type: in vivo, Amaranthus retroflexus; details: for Pigweed plant response rating: scale 0 (no effect) to 100 (complete control)
In short: as §1

[10] = system: blackgrass; experiment: Test B postemergence herbicide test; type: in vivo, Alopecurus myosuroides; details: postemergence
In short: (§2)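 Read-out: visual comparison with controls, scored 0 to 100, where 100 means complete control and 0 no effect. Formulated chemicals were applied postemergence to plants 2–18 cm tall (1- to 4-leaf), or to flooded-paddy plants at the 2-leaf stage, then held 13 to 15 days under glass.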

[11] = system: wheat; experiment: Test B postemergence herbicide test; type: in vivo, Triticum aestivum; set-up: key to Wheat plant response rating: 0 = no effect, 100 = complete control
In short: (§3)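 Each value is a visual 0–100 response rating taken against controls 13 to 15 days after treatment in the greenhouse. Plants received formulated chemical postemergence at the 1- to 4-leaf stage or, in flooded paddy, at the 2-leaf stage.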

[12] = system: wild oat; experiment: Test B postemergence herbicide test; type: in vivo, Avena fatua; details: scale 0 (no effect) to 100 (complete control)
In short: as §3

[13] = system: rice; experiment: Test B flooded paddy test; type: in vivo, Oryza sativa; details: 1000 g ai/ha, scale 0 to 100 (0 no effect, 100 complete control)
In short: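 Plants grow to 1- to 4-leaf stage (2–18 cm) for postemergence spraying, or to 2-leaf stage for the paddy test. Formulated compound is applied. Greenhouse holding lasts 13–15 days. Response is scored visually relative to controls, 0 no effect to 100 complete control; a dash means no result.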

[14] = system: small flower umbrella sedge; experiment: Test B flooded paddy test; type: in vivo, Cyperus difformis; details: 1000 g ai/ha, scale 0 to 100 (0 no effect, 100 complete control)
In short: as §2

[15] = system: ducksalad; experiment: Test B flooded paddy test; type: in vivo, Heteranthera limosa; details: 1000 g ai/ha, scale 0 to 100 (0 no effect, 100 complete control)
In short: as §2

[16] = system: barnyardgrass; experiment: Test B flooded paddy test; type: in vivo, Echinochloa crus-galli; details: 1000 g ai/ha, scale 0 to 100 (0 no effect, 100 complete control)
In short: as §2

[17] = 125 g ai/ha, 0 is no effect, 100 is complete control, preemergence
[18] = 125 g ai/ha, visual rating, scale 0 (no effect) to 100 (complete control)
[19] = 500 g ai/ha, scale 0 to 100, 0 is no effect, 100 is complete control
[20] = 125 g ai/ha, visual rating, postemergence

For `CCc1nn(C(C)(C)C)nc1C(=O)Nc1cccc(C(=O)N(C)CC)c1` [Compound 384], the “Plant response rating (0 to 100 scale), Barnyardgrass” value [1, 17] was 90, the “Barnyardgrass plant response rating” value [1, 18] was 0 and the “Barnyardgrass plant response rating” value [1, 19] was 30. The “Plant response rating (0 to 100 scale), Surinam Grass” value [2, 17] was 100, the “Surinam Grass plant response rating” value [2, 20] was 10 and the “Surinam Grass plant response rating” value ([2]; Postemergence, 500 g ai/ha) was 60. The “Plant response rating (0 to 100 scale), Cocklebur” value [3, 17] was 0, the “Cocklebur plant response rating” value [3, 18] was 30 and the “Cocklebur plant response rating” value [3, 19] was 40. For the same compound, the “Plant response rating (0 to 100 scale), Corn” value [4, 17] was 80, the “Corn plant response rating” value [4, 18] was 0 and the “Corn plant response rating” value [4, 19] was 10. For the same compound, the “Plant response rating (0 to 100 scale), Crabgrass, Large” value [5, 17] was 90, the “Crabgrass, Large plant response rating” value [5, 18] was 10 and the “Crabgrass, Large plant response rating” value [5, 19] was 40. For the same compound, the “Plant response rating (0 to 100 scale), Foxtail, Giant” value [6, 17] was 90, the “Foxtail, Giant plant response rating” value [6, 18] was 10 and the “Foxtail, Giant plant response rating” value [6, 19] was 30. For the same compound, the “Plant response rating (0 to 100 scale), Lambsquarters” value [7, 17] was 100, the “Lambsquarters plant response rating” value [7, 20] was 70 and the “Lambsquarters plant response rating” value ([7]; Postemergence, 500 g ai/ha) was 80. For the same compound, the “Plant response rating (0 to 100 scale), Morningglory” value [8, 17] was 10, the “Morningglory plant response rating” value [8, 20] was 30 and the “Morningglory plant response rating” value ([8]; Postemergence, 500 g ai/ha) was 40. The “Plant response rating (0 to 100 scale), Pigweed” value [9, 17] was 90, the “Pigweed plant response rating” value [9, 20] was 30 and the “Pigweed plant response rating” value ([9]; Postemergence, 500 g ai/ha) was 70. For the same compound, the “Blackgrass plant response rating” value [10, 18] was 20, the “Blackgrass plant response rating” value [10, 19] was 50 and the “Wheat plant response rating” value ([11]; 125 g ai/ha, visual rating, scale 0 (no effect) to 100 (complete control), postemergence) was 10. The “Wheat plant response rating” value ([11]; 500 g ai/ha, scale 0 to 100, 0 no effect, 100 complete control, preemergence) was 100, the “Wheat plant response rating” value ([11]; Postemergence, 500 g ai/ha, scale 0 (no effect) to 100 (complete control)) was 20 and the “Oat, Wild plant response rating” value [12, 20] was 10. For the same compound, the “Oat, Wild plant response rating” value ([12]; Postemergence, 500 g ai/ha) was 30, the “Rice plant response rating” value [13] was 90 and the “Sedge, Umbrella plant response rating” value [14] was 80. The “Ducksalad plant response rating” value [15] was 80 and the “Barnyardgrass plant response rating” value [16] was 90.

Reference: US20060069132A1, “Azolecarboxamide herbicides” (priority 2004, published 2006)
